The results in this text go back to paper PMC11718441, “Bis-3-chloropiperidines: a novel motif for anthelmintic drug design” (RSC Advances, 2025).

“Also recorded” adds a separate entry of the source. Where two headings read alike, the source gives them in different places. Where only a bound is given, the exact number is not on record here.

Data set [1] relates to C. elegans strains N2 and DC19. Nature of the data set: MMIC against C. elegans, strains N2 and DC19 reported together or strain not stated. In kind it is cell-based. The following applies: Caenorhabditis elegans, 48 h. An excerpt:
The cuticle of C. elegans strain DC19 is known to be more permeable for small molecules compared to the wildtype N2.[30] DC19 is thereby considered an informative drug-sensitive test organism. In our assays, we determined the minimum mobility inhibitory concentration (MMIC) as a proxy for anthelmintic activity. […] In contrast, MMICs of some small molecule anthelmintics such as albendazole, mebendazole or PF-1022A were lower for DC19 (Fig. S1 ^†). […]
2.2 In vitro tests against Caenorhabditis Elegans
The minimal motility inhibitory concentration (MMIC) of compounds 1-22 against C. elegans was determined as described before.3 Both strains, C. elegans N2 and DC19 were treated identically. Briefly, pre-cultures of C.elegans were kept on NGM agar plates infused with auxotrophic E.coli OP50 as food source.4 After 4 days the plates contained sufficient gravid worms, respectively. Worms were washed from the plates with M9 buffer using wide bore pipette tips. Egg preparation was carried out by treating the harvested worms with an alkaline hypochlorite solution (5 M NaOH + 5 % NaOCl 1:2) in polypropylene tubes. Larvae and adult […]
We carried out 3 washing steps (M9 buffer) to remove carry-over hypochlorite solution. Subsequently, the eggs were incubated overnight in NGM broth on a rotator to yield synchronized hatched L1/L2 larvae. The larvae solution was adjusted to 100 worms/mL and supplemented with cholesterol (5 µg/mL), carbenicillin (25 µg/mL) and E.coli OP50 (0.5%). This assay solution was distributed into 96 well plates and incubated with a dilution series of compounds 1-22 (64-0.5 µg/mL). An additional eight-point dilution series of ivermecin (40 – 0.3 ng/mL) was used as positive control on each assay plate. Solvent background was controlled by supplementation of pure DMSO without any compound. Assays were incubated for 2 days at room temperature. Finally, a cell imaging multimode reader (Cytation™ 5) was used to record short videos (1.5 seconds) of each individual test well. The videos were used to evaluate the worm motility.

Another data set relates to MDCK II cells. Put plainly: In vitro cytotoxicity, CellTiter-Glo, MDCK II cells. The note with it: 100 μM; for MDCKII cytotoxicity: 48 h, cell viability less than 80% relative to DMSO control = cytotoxic. For orientation: In ATP-based viability assays light output follows the ATP content of the culture.
The test system of the next data set is S. aureus ATCC33592. Nature of the data set: microbe, parasite or virus in culture. The data set is classed as cell-based. The following applies: Staphylococcus aureus, ATCC33592, read-out: MIC Sa.
Data set [2] deals with Escherichia coli ATCC35218. Put plainly: microbe, parasite or virus in culture. The following applies: ATCC35218, read-out: MIC Ec. In kind it is cell-based.
A short description of a further data set: in vitro. The following applies: dog.
In a further data set the test system is Schistosoma mansoni. Put plainly: In vitro tests against Schistosoma mansoni (vitality parameters of adult worm pairs). The data set is classed as cell-based. The following applies: for activity against S. mansoni (100% effect strength in one parameter within 7 days = active): 10 or 20 μM; for Effect on S. mansoni: 10 and 20 μM, up to 7 days, Det: detachment of suckers, Mot: motility reduction, Sep: pair separation. As to the method:
Subsequently, we tested whether compounds with nematocidal activity display a broader activity also against parasitic flatworms. To this end, in vitro tests against the blood fluke S. mansoni were conducted (Fig. 4). The worms were incubated in presence of 10 and 20 μM of compounds 1–22 and phenotypic vitality parameters (separation of worm pairs, detachment of suckers from the bottom of the well and weakening of body movements) were assessed as previously described.[31] Compounds reaching 100% effect strength in one of the parameters within 7 days were considered active. Reduction of motility is considered most relevant for antischistosomal drug candidates.[32] In addition, loss of sucker activity would make parasites drifting off from their host habitat (mesenteric veins) and with pair separation, the production of pathology-causing eggs eventually ceases.[33] […] For some molecular targets e.g. glutamate and GABA chloride channels (ivermecin, abamectin) and β-tubulin (albendazole, mebendazole) the C. elegans assays results were transferable to Schistosoma, while for others e.g. acetylcholin mimetic (levamisole) the C. elegans MMIC was not predicative (Fig. S1 ^†).
2.2 Parasitological studies
Animal experiments were performed in accordance with Directive 2010/63/EU on the protection of animals used for scientific purposes and the German Animal Welfare Act. The experiments were approved by the Regional Council (Regierungspraesidium) Giessen (V54 – […]
A Liberian strain of S. mansoni was maintained in the freshwater snail Biomphalaria glabrata as intermediate host and Syrian hamsters (Mesocricetus auratus) as final host (Janvier Labs, France).5,6 Hamsters were infected at 8 weeks of age with 1,750 cercariae by using the paddling method.7 Adult worms were collected at 46 days p.i. by hepatoportal perfusion and cultured in M199 medium (Sigma-Aldrich, Germany) supplemented with 10% Newborn Calf Serum (NCS, Sigma-Aldrich), 1% 1 M HEPES (ThermoFisher Scientific, USA) and 1% ABAM solution (10,000 units/ml penicillin, 10 mg/ml streptomycin and […] amphotericin B; Sigma-Aldrich, Germany) at 37 °C, 5% CO2 and humidified atmosphere.
2.2.3. In vitro tests against Schistosoma mansoni
Test compounds were added at 10 µM or 20 µM in supplemented M199 medium to schistosomes (5 worm pairs per replicate) followed by a 7 d in vitro culture. Worms receiving the solvent DMSO at equal dilution served as negative control. The following vitality parameters were assessed every 24 h by bright field microscopy using a Leica DM IL inverted microscope and x2.5 objective lens: separation of worm pairs into male and female worms; detachment of suckers from the bottom; and weakening of body movements. Worm motility was scored as described previously, 8 with the scores 3 (normal motility), 2 (reduced motility), 1 (minimal and sporadic movements), 0 (no movements within 20 sec; dead worms). An average score of all worms per well was calculated to obtain a motility score. An average motility score of 0, separation of all pairs or detachment of all worms per well was considered

Data set [3] relates to Septoria tritici MUCL45408. Put plainly: Minimum inhibitory concentration (MIC), S. tritici (ATP quantification). The data set is classed as cell-based. The following applies: Zymoseptoria tritici, MUCL45408, 96 h, read-out: MIC St. Here is the method:
The minimum inhibitory concentration (MIC) of the synthesized compounds was initially determined against three microbial indicator strains (Escherichia coli ATCC35218, […] ATCC33592, Septoria tritici MUCL45408). […]
2. Microbial and parasitological studies
The minimum inhibitory concentration (MIC) of the synthesized compounds was determined against three microbial indicator strains (E. coli ATCC35218, S. aureus ATCC33592 and S. tritici MUCL45408) as previously described.1,2 All samples were dissolved in DMSO and tested in triplicate. Briefly, a pre-culture of E. coli and S. aureus was prepared by incubating the strains in cation adjusted Mueller Hinton 2 broth (Becton Dickinson, Sparks, NV, USA) at 37°C and 180 rpm overnight. The cell density of adjusted to 5 × 10^5 cells/mL before assays were incubated at 37 °C, 180 rpm and 85% rH. Three distinct dilution series of standard antibiotics (gentamicin, rifampicin, and tetracycline) were used as positive controls on each assay plate. Inoculated medium without test compound or positive control was used as negative control.
Medium background was averaged from 5 replicates. The turbidity of each well was measured with a microplate spectrophotometer at 600 nm (LUMIstar® Omega, BMG Labtech) and growth inhibition was calculated relative to the absorption of the controls. For S. tritici MUCL45408 inoculated at a density of 1 × 10^5 cells/mL in potato […]
dextrose medium. Septoria assay plates were incubated for 4 days at 25 °C, 180 rpm and 85% rH. Tebuconazole, amphotericin B, and nystatin were used as positive controls. Cell viability was evaluated via ATP quantification (BacTiter-Glo™, Promega GmbH, Walldorf, Germany) according to the manufacturer’s instructions. […]

For another data set, the system named is C. elegans DC19. Nature of the data set: whole plant or invertebrate. The data set is classed as cell-based, Caenorhabditis elegans. The following applies: Caenorhabditis elegans, 48 h, read-out: MMIC DC19. In short, it runs like this:
(§1)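 Synchronized L1/L2 larvae of C. elegans N2 or drug-sensitive DC19, 100 worms/mL in NGM broth with cholesterol, carbenicillin and E. coli OP50, exposed to compound dilutions (64-0.5 µg/mL) for 2 days at room temperature. Motility judged from 1.5-second well videos; MMIC is the lowest concentration inhibiting movement.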

In a further data set the test system is C. elegans N2. Put plainly: whole plant or invertebrate. In kind it is cell-based, Caenorhabditis elegans. The following applies: Caenorhabditis elegans, 48 h, read-out: MMIC N2. The method, boiled down:
as §1

Setting [4] is: C. elegans, read-out: MMIC N2 and DC19.

`COC(=O)c1cc(CN2CC(Cl)CC(C)(C)C2)cc(CN2CC(Cl)CC(C)(C)C2)c1` (stereo not shown) [Compound 4]: the values for the minimal effective concentration (in data set [1] (setting [4]); with C. elegans DC19; in the data set on C. elegans N2) were less than 20 µg/mL, 16 µg/mL and 16 µg/mL, respectively. The MDCKII cytotoxicity result in the data set with MDCK II cells was “− (“−” (not toxic))”. The MIC (in the data set on S. aureus ATCC33592; in [2]; in data set [3]) was greater than 64 µg/mL in each case. This compound also showed a CC50 in the data set “in vitro” of 205 µM. In addition, the “activity against S. mansoni (100% effect strength in one parameter within 7 days = active)” value in the data set with Schistosoma mansoni was “no activity”.

Take `CC1(C)CC(Cl)CN(Cc2cc(CN3CC(Cl)CC(C)(C)C3)cc([N+](=O)[O-])c2)C1` (stereo not shown) [Compound 5]: the minimal effective concentration in data set [1] (setting [4]) was less than 20 µg/mL; in the data set on C. elegans DC19 it was 16 µg/mL; in the data set on C. elegans N2, 16 µg/mL. Also, in the data set with MDCK II cells, the MDCKII cytotoxicity result is reported as “− (“−” (not toxic))”. For the same compound, the MIC (in the data set on S. aureus ATCC33592; in [2]; in data set [3]) was greater than 64 µg/mL throughout. This compound also displayed a CC50 in the data set “in vitro” greater than 1000 µM. Besides, in the data set with Schistosoma mansoni (10 μM), the “sucker detachment of Schistosoma worm pairs” value was “full sucker detachment”. For the same compound, in the data set on Schistosoma mansoni, the “Effect on S. mansoni” value was “Det, Sep, Lethal”. Further, the “activity against S. mansoni (100% effect strength in one parameter within 7 days = active)” value in the data set on Schistosoma mansoni is reported as “showed an effect on S. mansoni; also recorded: active at 10 μM”. For the same compound, the motility score in the data set on Schistosoma mansoni (score 3 normal motility to 0 dead, paragraph on 20 μM) is listed as 1–1.2.

In the case of `COc1ccc(CN2CC(Cl)CC(C)(C)C2)c(CN2CC(Cl)CC(C)(C)C2)c1` (stereo not shown) [Compound 9], the minimal effective concentration in data set [1] (read-out: MMIC N2 and DC19, C. elegans) is 64 µg/mL; with C. elegans DC19, 64 µg/mL; with C. elegans N2, greater than 64 µg/mL. Moreover, in the data set on MDCK II cells, the “cytotoxicity against MDCK II (in words)” value is “cytotoxic”. Further, the MDCKII cytotoxicity result in the data set with MDCK II cells is listed as “+ (“+” (toxic))”. The MIC (in the data set with S. aureus ATCC33592; in data set [2]; in data set [3]) was greater than 64 µg/mL each time. Further, the CC50 in “in vitro” stood at 70 µM. Besides, the “separation of worm pairs” value in the data set with Schistosoma mansoni (10 μM, after 3 days) was “separation of all worm pairs”. Moreover, the lethal effects result in the data set on Schistosoma mansoni (20 μM, after seven days) was “lethal effects”. Also, the sucker detachment entry in the data set on Schistosoma mansoni (20 μM, after three days) is recorded as “sucker detachment already after three days”. Moreover, in the data set on Schistosoma mansoni, the “Effect on S. mansoni” value is “Det, Sep, Lethal”. Besides, the “activity against S. mansoni (100% effect strength in one parameter within 7 days = active)” value with Schistosoma mansoni was “Schistosoma-specific; also recorded: active at 20 μM”.

Turning to `CC1(C)CC(Cl)CN(Cc2cc(CN3CC(Cl)CC(C)(C)C3)cc(CN3CC(Cl)CC(C)(C)C3)c2)C1` (stereo not shown) [Compound 21], the minimal effective concentration in data set [1] (setting [4]) was less than 20 µg/mL. The “cytotoxicity against MDCK II (in words)” value in the data set on MDCK II cells is on record as “did not exhibit cytotoxic properties”. The MDCKII cytotoxicity result in the data set on MDCK II cells is “− (“−” (not toxic))”. Besides, the MIC (with S. aureus ATCC33592; in data set [2]; in data set [3]) was greater than 64 µg/mL in each case. The CC50 in “in vitro” was greater than 1000 µM. For the same compound, the “activity against S. mansoni (100% effect strength in one parameter within 7 days = active)” value in the data set with Schistosoma mansoni is “did not affect Schistosoma”.
